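Interpolation was linear, between the two tested concentrations surrounding the appropriate level; five concentrations were tested over 48 hours in 96-well plates. At the TGI there is no net growth.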
Assays:
Test in all cases: NCI anticancer screen, dose series, 48 h
[1] = tested on: 786-0 renal
[2] = tested on: A498 renal
[3] = tested on: A549 NSCLC
[4] = tested on: ACHN renal
[5] = tested on: CAKI-1 renal
[6] = tested on: CCRF-CEM leukemia
[7] = tested on: COLO 205 colon
[8] = tested on: DU-145 prostate
[9] = tested on: EKVX NSCLC
[10] = tested on: HCC-2998 colon
[11] = tested on: HCT-116 colon
[12] = tested on: HCT-15 colon
[13] = tested on: HL-60(TB) leukemia
[14] = tested on: HOP-62 NSCLC
[15] = tested on: HS 578T breast
[16] = tested on: HT29 colon
[17] = tested on: IGROV1 ovarian
[18] = tested on: K-562 leukemia
[19] = tested on: KM12 colon
[20] = tested on: LOX IMVI melanoma
[21] = tested on: M14 melanoma
[22] = tested on: MALME-3M melanoma
[23] = tested on: MCF7 breast
[24] = tested on: MDA-MB-231 breast
[25] = tested on: MDA-N
[26] = tested on: MOLT-4 leukemia
[27] = tested on: NCI-H23 lung
[28] = tested on: NCI-H460 lung
[29] = tested on: NCI/ADR-RES ovarian
[30] = tested on: OVCAR-3 ovarian
[31] = tested on: OVCAR-4 ovarian
[32] = tested on: OVCAR-5 ovarian
[33] = tested on: OVCAR-8 ovarian
[34] = tested on: PC-3 prostate
[35] = tested on: RPMI-8226 leukemia
[36] = tested on: SF-268 CNS
[37] = tested on: SF-295 CNS
[38] = tested on: SF-539 CNS
[39] = tested on: SK-MEL-2 melanoma
[40] = tested on: SK-MEL-28 melanoma
[41] = tested on: SK-MEL-5 melanoma
[42] = tested on: SK-OV-3 ovarian
[43] = tested on: SN12C renal
[44] = tested on: SNB-19 CNS
[45] = tested on: SNB-75 CNS
[46] = tested on: SR leukemia
[47] = tested on: SW-620 colon
[48] = tested on: T-47D breast
[49] = tested on: TK-10 renal
[50] = tested on: U251 CNS
[51] = tested on: UACC-257 melanoma
[52] = tested on: UO-31 renal
[53] = tested on: HOP-92 NSCLC
[54] = tested on: MDA-MB-435
[55] = tested on: NCI-H226 lung
[56] = tested on: NCI-H522 lung
[57] = tested on: RXF 393 renal
[58] = tested on: UACC-62 melanoma

CC1CN=C(N(Cc2ccc(F)cc2)C(=O)Nc2ccc(Cl)cc2)S1 (stereo unspecified)
TGI [1]: > 100 µM | TGI [2]: 67.4 µM | TGI [3]: > 100 µM | TGI [4]: > 100 µM | TGI [5]: > 100 µM | TGI [6]: > 100 µM | TGI [7]: > 100 µM | TGI [8]: > 100 µM | TGI [9]: 69.2 µM | TGI [10]: 76.6 µM | TGI [11]: > 100 µM | TGI [12]: > 100 µM | TGI [13]: 91 µM | TGI [14]: > 100 µM | TGI [15]: > 100 µM | TGI [16]: 65.8 µM | TGI [17]: > 100 µM | TGI [18]: > 100 µM | TGI [19]: > 100 µM | TGI [20]: 54.5 µM | TGI [21]: 17.4 µM | TGI [22]: > 100 µM | TGI [23]: 64 µM | TGI [24]: > 100 µM | TGI [25]: 61.1 µM | TGI [26]: > 100 µM | TGI [27]: > 100 µM | TGI [28]: > 100 µM | TGI [29]: > 100 µM | TGI [30]: > 100 µM | TGI [31]: > 100 µM | TGI [32]: > 100 µM | TGI [33]: > 100 µM | TGI [34]: > 100 µM | TGI [35]: > 100 µM | TGI [36]: > 100 µM | TGI [37]: > 100 µM | TGI [38]: > 100 µM | TGI [39]: 37.5 µM | TGI [40]: 71.7 µM | TGI [41]: 29.4 µM | TGI [42]: > 100 µM | TGI [43]: > 100 µM | TGI [44]: > 100 µM | TGI [45]: > 100 µM | TGI [46]: > 100 µM | TGI [47]: > 100 µM | TGI [48]: > 100 µM | TGI [49]: > 100 µM | TGI [50]: > 100 µM | TGI [51]: > 100 µM | TGI [52]: > 100 µM

N#C/C(C(=O)Nc1ccccc1)=C(/N)N1CCCC1
TGI [1]: > 100 µM | TGI [2]: > 100 µM | TGI [3]: > 100 µM | TGI [4]: > 100 µM | TGI [5]: > 100 µM | TGI [6]: > 100 µM | TGI [7]: > 100 µM | TGI [8]: > 100 µM | TGI [9]: > 100 µM | TGI [10]: > 100 µM | TGI [11]: > 100 µM | TGI [12]: > 100 µM | TGI [13]: > 100 µM | TGI [14]: > 100 µM | TGI [53]: > 100 µM | TGI [15]: > 100 µM | TGI [16]: > 100 µM | TGI [17]: > 100 µM | TGI [18]: > 100 µM | TGI [19]: > 100 µM | TGI [20]: > 100 µM | TGI [21]: > 100 µM | TGI [22]: > 100 µM | TGI [24]: > 100 µM | TGI [54]: > 100 µM | TGI [25]: > 100 µM | TGI [26]: > 100 µM | TGI [55]: > 100 µM | TGI [27]: > 100 µM | TGI [28]: > 100 µM | TGI [56]: > 100 µM | TGI [29]: > 100 µM | TGI [30]: > 100 µM | TGI [31]: > 100 µM | TGI [32]: > 100 µM | TGI [33]: > 100 µM | TGI [34]: > 100 µM | TGI [35]: > 100 µM | TGI [57]: > 100 µM | TGI [36]: > 100 µM | TGI [37]: > 100 µM | TGI [38]: > 100 µM | TGI [39]: > 100 µM | TGI [40]: > 100 µM | TGI [41]: > 100 µM | TGI [42]: > 100 µM | TGI [43]: > 100 µM | TGI [44]: > 100 µM | TGI [46]: > 100 µM | TGI [47]: > 100 µM | TGI [48]: > 100 µM | TGI [49]: > 100 µM | TGI [50]: > 100 µM | TGI [51]: > 100 µM | TGI [58]: > 100 µM | TGI [52]: > 100 µM

O=C(Nc1ccccn1)/C(=C\C(=O)c1ccc(Cl)cc1)Nc1ccccc1
TGI [1]: > 10 µM | TGI [3]: > 10 µM | TGI [5]: > 10 µM | TGI [6]: > 10 µM | TGI [7]: > 10 µM | TGI [8]: > 10 µM | TGI [9]: > 10 µM | TGI [10]: > 10 µM | TGI [12]: > 10 µM | TGI [13]: > 10 µM | TGI [14]: > 10 µM | TGI [53]: > 10 µM | TGI [16]: > 10 µM | TGI [17]: > 10 µM | TGI [18]: > 10 µM | TGI [19]: > 10 µM | TGI [20]: > 10 µM | TGI [21]: > 10 µM | TGI [22]: > 10 µM | TGI [23]: > 10 µM | TGI [24]: > 10 µM | TGI [54]: > 10 µM | TGI [25]: > 10 µM | TGI [26]: > 10 µM | TGI [27]: > 10 µM | TGI [31]: > 10 µM | TGI [33]: > 10 µM | TGI [34]: > 10 µM | TGI [35]: > 10 µM | TGI [57]: > 10 µM | TGI [36]: > 10 µM | TGI [37]: > 10 µM | TGI [40]: > 10 µM | TGI [41]: > 10 µM | TGI [42]: > 10 µM | TGI [43]: > 10 µM | TGI [45]: > 10 µM | TGI [46]: > 10 µM | TGI [47]: > 10 µM | TGI [48]: > 10 µM | TGI [49]: > 10 µM | TGI [51]: > 10 µM | TGI [58]: > 10 µM
